Experiment [1] has as its system B16 melanoma cells. Description: Anti-pigmentation effect, photographs of cell pellets. As to conditions: 20 μM. It is filed as cell-based, mouse. As for the experimental part: (§1) At different time points, cells were harvested using trysin-EDTA and the cell pellets were washed once with phosphate-buffered saline (PBS). A sample amount from each compound treatment group was divided into two equal parts. These cell pellets were then stored at −80° C. prior to the measurement of the tyrosinase activity and melanin content.

Another experiment has as its system B16 cells. Kind of experiment: Melanin content of pre-treated B16 cells after UV exposure. It counts as cell-based, mouse. The following applies: 10 minutes UV exposure (short and long wave UV).
Experiment [2] relates to B16 cells xenografted on the flank of nude mice. Kind of experiment: B16 xenograft model in nude mice. The following applies: cells pre-treated with 20 μM for 1 week, 14 days oral supplementation. It is filed as in vivo. As for the experimental part:
The experimental protocol was approved by the IACUC Committee of the A-STAR Biological Resource Centre (BRC) at Biopolis (IACUC no. 080302). Male BALB/c athymic nude mice (4-5 weeks old, 18-22 g) were purchased from The Jackson Laboratory (Bar Harbor, Me., USA). Mice were housed in Department 1 of the Biological Resource Centre (Biopolis, Singapore) under the standard condition (20.8±2° C., 55±1% relative humidity, 12 hrs light/dark cycle) with rodent diet (Harlan Laboratories, Inc., Indianapolis, Ind., USA) and chlorinated reverse osmosis water supplied in a pathogen-free environment. Briefly, B16 cells were pre-treated with 20 μM of γ- and δ-T3, or palm TRF for 1 week. Then, 5×10^5 pre-treated B16 cells in 100 μl serum-free DMEM were injected subcutaneously into the flank of nude mice using a 1-ml syringe with a 26-gauge needle (Becton Dickinson, Franklin Lakes, N.J., USA). This was followed by a 2-week oral supplementation of γ- and δ-T3, or palm TRF at the dose of 100 mg/kg/day. Altogether, there are four experimental groups: G1, vehicle control; G2, γT3 (100 mg/kg/d); G3, δT3 (100 mg/kg/d); and G4, full spectrum palm TRF (100 mg/kg/d). The mice were weighed daily and the tumors were measured using a Digital Carbon Fiber Caliper (Fisher Scientific, Pittsburgh, Pa., USA) at the 5th and 14th day after innoculation. After 14 days of treatment, the mice were euthanized by CO2 inhalation. Blood samples were collected through cardiac bleeding using a 26-gauge needle. Blood samples were incubated at room temperature for 30 min, followed by centrifugation at 4400 rpm for 30 min at 4° C. Serum, as the supernatant, was separated from plasma and stored at −80° C. Tumors, liver, kidney, spleen, lung, heart, and skin were harvested.

Experiment [3] deals with B16 melanoma cells. Kind of experiment: Melanin content of treated B16 melanoma cells. It counts as cell-based, mouse. The following applies: for melanin content lower than controls / melanin content: 20 μM; for melanin content: days 5 and 9. As for the experimental part:
as §1
Harvested cell pellets were dissolved in 1 ml of 1N sodium hydroxide before incubation at 80° C. The melanin content was then immediately measured at 420 nm. The absorbance percentage values of the treated groups in comparison to untreated controls were calculated against per μg of the determined total protein content.

A further experiment deals with tyrosinase mRNA. Description: Reverse transcriptase PCR of tyrosinase mRNA. It is filed as cell-based, mouse. The following applies: B16 melanoma cells. From the text: Total RNA was isolated using Trizol reagent according to the manufacturer's protocol (Invitrogen, Carlsbad, Calif., USA). cDNA was synthesized using the SuperScript First Strand Synthesis System (Invitrogen, Carlsbad, Calif., USA) and was then amplified by PCR with tyrosinase-specific primers (forward primer, tyrosinase-S,5′-[…]-3′ [−2236/−2217] (SEQ ID NO: 1) and reverse primer, tyrosinase-AS,5′-[…]-3′ [+63/+42]) (SEQ ID NO: 2) and GAPDH specific primers: 5′ to 3′F […] (SEQ ID NO: 3); 5′ to 3′R […] (SEQ ID NO: 4). The PCR cycling protocol was as follows: 30 cycles for 10 min at 95° C., 30 sec at 95° C., 30 sec at 55° C., 1 min at 72° C., and 10 min at 72° C. Glyceraldehyde 3-phosphate dehydrogenase (GAPDH) was amplified as an internal control. The PCR products were electrophoresed on a 2% agarose gel and analyzed using a gel documentation system.

The subject of experiment [4] is tyrosinase. Description: Western blot of tyrosinase protein expression in B16 melanoma cells. It counts as cell-based, mouse. As to conditions: for tyrosinase protein expression: 20 μM treatment; for tyrosinase protein suppression, dose response and relative potency: increasing dosage; for time response of tyrosinase suppression: single dose, 24 hrs versus 48 hrs. The method, then: Carcinogenesis, 2006, 27, 2180-9. Briefly, cell lysates were prepared by suspending cell pellets in lysis buffer (50 mmol/l Tris-HCl [pH 8.0], 150 mmol/l NaCl, 1% NP40, 0.5% deoxycholate, 0.1% SDS, […], 1 μg/ml leupeptin, and 1 mmol/l phenylmethylsulfonyl fluoride). The protein concentration was measured using the DC Protein Assay kit (Bio-Rad, Hercules, Calif., USA). An equal amount of protein (30 μg) was loaded onto a 10% SDS polyacrylamide gel for electrophoresis, then transferred onto a polyvinylidene difluoride membrane (Amersham, Piscataway, N.J., USA). The membrane was then incubated with primary antibodies for 1 hr at room temperature against tyrosinase, Id1, and beta-actin (Santa Cruz Biotechnology, Inc., Santa Cruz, Calif., USA). After incubation with appropriate secondary antibodies, signals were visualized by an ECL Western blotting system (Amersham). The expression of β-actin was assessed as an internal loading control for total cell lysate.

For experiment [5], the system named is cleaved caspase 3 and PARP. Description: Western blot of apoptotic molecules. It counts as cell-based, mouse. The following applies: B16 melanoma cells.
The subject of experiment [6] is tyrosinase. Description: UV-induced tyrosinase protein expression, Western blot. It is filed as cell-based, mouse. On the technique in general: A western blot detects proteins with antibodies after separation by electrophoresis.
Description: The UVB source for cell irradiation was provided using a UVP UVM-57 handheld UV lamp (UVP Inc, Upland, Calif., USA).
Briefly, cell lysates were prepared by suspending cell pellets in lysis buffer (50 mmol/l Tris-HCl [pH 8.0], 150 mmol/l NaCl, 1% NP40, 0.5% deoxycholate, 0.1% SDS, 1 mg/ml aprotinin, 1 μg/ml leupeptin, and 1 mmol/l phenylmethylsulfonyl fluoride). The protein concentration was measured using the DC Protein Assay kit (Bio-Rad, Hercules, Calif., USA). An equal amount of protein (30 μg) was loaded onto a 10% SDS polyacrylamide gel for electrophoresis, then transferred onto a polyvinylidene difluoride membrane (Amersham, Piscataway, N.J., USA). The membrane was then incubated with primary antibodies for 1 hr at room temperature against tyrosinase, Id1, and beta-actin (Santa Cruz Biotechnology, Inc., Santa Cruz, Calif., USA). After incubation with appropriate secondary antibodies, signals were visualized by an ECL Western blotting system (Amersham). The expression of β-actin was assessed as an internal loading control for total cell lysate.

1 compound from patent US20130317096A1, “SYNERGISTIC INTERACTION OF AT LEAST ONE VITAMIN E COMPONENT AND TYROSINASE INHIBITORS FOR DERMATOLOGICAL APPLICATIONS” (Davos Life Science Pte Ltd, priority 2010, published 2013) can be followed below.

`CC(C)=CCC/C(C)=C/CC/C(C)=C/CCC1(C)CCc2cc(O)c(C)c(C)c2O1` (stereo not shown) [γ-tocotrienol, 7,8-dimethyltocotrienol]: the cell pellet pigmentation entry in the experiment with B16 melanoma cells [1] (listed as gamma T3) and in the experiment on B16 melanoma cells [1] (listed as γT3) was “lighter cell pigmentation” in each case. In addition, the “melanin content after UV exposure” value in the experiment on B16 cells is “significantly suppressed the melanin content”. In addition, the “pigmentation of solid tumors” value in experiment [2] is “lighter in colour compared to controls”. For the same compound, the tumor size entry in experiment [2] is given as “significantly smaller”. Besides, the “melanin content lower than controls” value was 45% in the experiment on B16 melanoma cells [3] (day 5) and 30% in the experiment on B16 melanoma cells [3] (day 9). The melanin content result is “significantly suppressed the melanin content up to day 9” in the experiment with B16 melanoma cells [3] (listed as gamma T3); “marginally lower than the treatment samples using 0.05% sodium lactate and kojic acid” in the experiment on B16 melanoma cells [3] (listed as γT3). For the same compound, the constitutive melanin synthesis result with B16 melanoma cells [3] (B16 melanoma cells) is given as “suppress constitutive melanin synthesis”. Moreover, the “tyrosinase mRNA” value in the experiment on tyrosinase mRNA is reported as “No change of tyrosinase mRNA”; with tyrosinase mRNA (listed as γ-T3), “not affected”. The tyrosinase protein expression entry is on record as “remarkable suppression of tyrosinase protein expression” in the experiment on tyrosinase [4] (listed as γ-T3) and “suppresses tyrosinase protein expression” with tyrosinase [4] (listed as γT3). Moreover, the “tyrosinase protein suppression, dose response and relative potency” value is given as “significant suppression of tyrosinase in a dose-dependent manner” with tyrosinase [4] (listed as γ-T3) and “stronger” with tyrosinase [4] (listed as γT3). In addition, the “time response of tyrosinase suppression” value with tyrosinase [4] (listed as γ-T3) is given as “enhanced by increasing the treatment period from 24 to 48 hrs”; in the experiment with tyrosinase [4] (listed as γT3), “enhanced after a 48 hr incubation period”. Besides, the “induction of apoptotic molecules (cleaved caspase 3 and PARP)” value in experiment [5] is “induced critical apoptotic molecules in a dose-dependent manner”; in experiment [5] (listed as γ-T3) it was “induced cellular apoptosis”. In addition, the “tyrosinase protein expression of B16 cells exposed to UV” value with tyrosinase [6] (UV 1, 10, 30 and 60 minutes) was “significantly suppressed the tyrosinase protein expression”. In addition, the “long-term inhibitory effect on UVB-induced tyrosinase activation” value in the experiment on tyrosinase [6] (long-term UVB) is “comparable”.
